Reference: paper PMC9080270 (RSC Advances, 2018)

Biological target: T1, adenosine A1 receptor (A1AR) (Homo sapiens, UniProt P30542)
T1 sequence (P30542 1-326): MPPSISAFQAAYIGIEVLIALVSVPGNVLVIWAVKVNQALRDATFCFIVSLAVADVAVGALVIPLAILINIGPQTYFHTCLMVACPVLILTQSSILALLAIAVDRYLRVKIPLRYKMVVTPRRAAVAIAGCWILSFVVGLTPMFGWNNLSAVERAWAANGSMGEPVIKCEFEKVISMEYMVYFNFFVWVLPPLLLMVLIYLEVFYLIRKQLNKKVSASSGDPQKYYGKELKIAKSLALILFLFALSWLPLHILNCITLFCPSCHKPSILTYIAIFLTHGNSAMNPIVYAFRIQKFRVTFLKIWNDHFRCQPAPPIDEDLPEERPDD
Assay: NanoBRET saturation binding in HEK293 cells
Type: cell-based

- Kd: 110 nM
Substance: CA200645
